Results published in publication PMC11178787, “Development of a natural product optimization strategy for inhibitors against MraY, a promising antibacterial target” (Nature Communications, 2024).
Values after ≈ are worked out from the molar mass of the structure shown. Read-outs that look alike come from different tables or passages of the source.

Legend:
Assay in all cases: microbe, parasite or virus in culture
[1] = test system: T1, Staphylococcus aureus #2110; design: CLSI broth microdilution MIC in MHB-II; details: Staphylococcus aureus, 18 h, read-out: MIC
T1 construct: #2110
Experimental: (§1) MICs were determined by a microdilution broth method as recommended by the CLSI with MHB-II. For MICs of stable analogues, a 2-fold dilution of each compound was prepared in DMSO at 100-fold of the final concentration. The strains were inoculated with 5 × 10^5 cfu/mL in 96-well plates (each 100 μL/well), and 1 μL of DMSO solutions of the samples were added (contained less than 1% DMSO). The plates were incubated at 37 °C for 18 h and then MICs were determined. MICs of stable analogues in Table 1 were the highest value in three trials. MICs in Supplementary Table 1 were determined in one trial.

Enterococcus faecalis 29 = test system: T2, Enterococcus faecalis 29; design: CLSI broth microdilution MIC in MHB-II; details: Enterococcus faecalis, 29, 18 h, read-out: MIC
T2 construct: 29
Experimental: as §1

[2] = test system: T3, Staphylococcus aureus #2935; design: CLSI broth microdilution MIC in MHB-II; details: Staphylococcus aureus, 18 h, read-out: MIC
T3 construct: #2935
Experimental: as §1

Enterococcus faecium 1 = test system: Enterococcus faecium 1; design: CLSI broth microdilution MIC in MHB-II; details: Enterococcus faecium, 1, 18 h, read-out: MIC
Experimental: as §1

Enterococcus faecium 3 = test system: Enterococcus faecium 3; design: CLSI broth microdilution MIC in MHB-II; details: Enterococcus faecium, 3, 18 h, read-out: MIC
Experimental: as §1

Enterococcus faecalis 27 = test system: T4, Enterococcus faecalis 27; design: CLSI broth microdilution MIC in MHB-II; details: Enterococcus faecalis, 27, 18 h, read-out: MIC
T4 construct: 27
Experimental: as §1

[3] = test system: T5, Staphylococcus aureus #2931; design: CLSI broth microdilution MIC in MHB-II; details: Staphylococcus aureus, 18 h, read-out: MIC
T5 construct: #2931
Experimental: as §1

Enterococcus faecium 11 = test system: T6, Enterococcus faecium 11; design: CLSI broth microdilution MIC in MHB-II; details: Enterococcus faecium, 11, 18 h, read-out: MIC
T6 construct: 11
Experimental: as §1

Enterococcus faecalis 30 = test system: T7, Enterococcus faecalis 30; design: CLSI broth microdilution MIC in MHB-II; details: Enterococcus faecalis, 30, 18 h, read-out: MIC
T7 construct: 30
Experimental: as §1

Enterococcus faecium 8 = test system: Enterococcus faecium 8; design: CLSI broth microdilution MIC in MHB-II; details: Enterococcus faecium, 8, 18 h, read-out: MIC
Experimental: as §1

Enterococcus faecalis 21 = test system: T8, Enterococcus faecalis 21; design: CLSI broth microdilution MIC in MHB-II; details: Enterococcus faecalis, 21, 18 h, read-out: MIC
T8 construct: 21
Experimental: as §1

Enterococcus faecalis 22 = test system: T9, Enterococcus faecalis 22; design: CLSI broth microdilution MIC in MHB-II; details: Enterococcus faecalis, 22, 18 h, read-out: MIC
T9 construct: 22
Experimental: as §1

[4] = test system: T10, Staphylococcus aureus #2934; design: CLSI broth microdilution MIC in MHB-II; details: Staphylococcus aureus, 18 h, read-out: MIC
T10 construct: #2934
Experimental: as §1

Enterococcus faecium 10 = test system: T11, Enterococcus faecium 10; design: CLSI broth microdilution MIC in MHB-II; details: Enterococcus faecium, 10, 18 h, read-out: MIC
T11 construct: 10
Experimental: as §1

Enterococcus faecalis 24 = test system: T12, Enterococcus faecalis 24; design: CLSI broth microdilution MIC in MHB-II; details: Enterococcus faecalis, 24, 18 h, read-out: MIC
T12 construct: 24
Experimental: as §1

Enterococcus faecalis 23 = test system: T13, Enterococcus faecalis 23; design: CLSI broth microdilution MIC in MHB-II; details: Enterococcus faecalis, 23, 18 h, read-out: MIC
T13 construct: 23
Experimental: as §1

Enterococcus faecalis 28 = test system: T14, Enterococcus faecalis 28; design: CLSI broth microdilution MIC in MHB-II; details: Enterococcus faecalis, 28, 18 h, read-out: MIC
T14 construct: 28
Experimental: as §1

Enterococcus faecium 4 = test system: Enterococcus faecium 4; design: CLSI broth microdilution MIC in MHB-II; details: Enterococcus faecium, 4, 18 h, read-out: MIC
Experimental: as §1

E. faecium ATCC 35667 = test system: T15, E. faecium ATCC 35667; design: CLSI broth microdilution MIC in MHB-II, single trial; details: Enterococcus faecium, ATCC35667, 18 h
T15 construct: ATCC 35667
Experimental: as §1

[5] = test system: T16, Staphylococcus aureus MRSA JE2; design: CLSI broth microdilution MIC in MHB-II, single trial; details: 18 h
T16 construct: JE2 (MRSA)
Experimental: as §1

S. aureus ATCC 29213 = test system: T17, S. aureus ATCC 29213; design: CLSI broth microdilution MIC in MHB-II, single trial; details: Staphylococcus aureus, ATCC29213, 18 h
T17 construct: ATCC 29213
Experimental: as §1

[6] = test system: T18, E. faecium(VRE) ATCC 51559; design: CLSI broth microdilution MIC in MHB-II, single trial; details: Enterococcus faecium, 18 h
T18 construct: ATCC 51559 (VRE)
Experimental: as §1

[7] = test system: T19, E. faecium(VRE) ATCC 51858; design: CLSI broth microdilution MIC in MHB-II, single trial; details: Enterococcus faecium, 18 h
T19 construct: ATCC 51858 (VRE)
Experimental: as §1

[8] = test system: T20, E. faecalis(VRE) ATCC 51299; design: CLSI broth microdilution MIC in MHB-II, single trial; details: Enterococcus faecalis, 18 h
T20 construct: ATCC 51299 (VRE)
Experimental: as §1

Row | Compound | MIC [1] | MIC (Enterococcus faecalis 29) | MIC [2] | MIC (Enterococcus faecium 1) | MIC (Enterococcus faecium 3) | MIC (Enterococcus faecalis 27) | MIC [3] | MIC (Enterococcus faecium 11) | MIC (Enterococcus faecalis 30) | MIC (Enterococcus faecium 8) | MIC (Enterococcus faecalis 21) | MIC (Enterococcus faecalis 22) | MIC [4] | MIC (Enterococcus faecium 10) | MIC (Enterococcus faecalis 24) | MIC (Enterococcus faecalis 23) | MIC (Enterococcus faecalis 28) | MIC (Enterococcus faecium 4) | other results
1 | CCCCCCCCCCCCCCCC(=O)N[C@@H](CCCCN)C(=O)Nc1ccc(CN[C@H](C(=O)O)[C@H](O[C@@H]2O[C@H](CN)[C@@H](O)[C@H]2O)[C@H]2O[C@@H](n3ccc(=O)[nH]c3=O)[C@H](O)[C@@H]2O)cc1 [compound 5, analogue 5] | 1 µg/mL (≈ 1.09 µM) | < 0.06 µg/mL | 1 µg/mL (≈ 1.09 µM) | 1 µg/mL (≈ 1.09 µM) | 0.5 µg/mL (≈ 0.543 µM) | 0.25 µg/mL (≈ 0.272 µM) | 0.25 µg/mL (≈ 0.272 µM) | 0.5 µg/mL (≈ 0.543 µM) | 0.13 µg/mL (≈ 0.141 µM) | 0.25 µg/mL (≈ 0.272 µM) | 0.5 µg/mL (≈ 0.543 µM) | 0.13 µg/mL (≈ 0.141 µM) | 0.25 µg/mL (≈ 0.272 µM) | 0.5 µg/mL (≈ 0.543 µM) | 0.25 µg/mL (≈ 0.272 µM) | 0.13 µg/mL (≈ 0.141 µM) | < 0.06 µg/mL | 0.25 µg/mL (≈ 0.272 µM) | MIC (E. faecium ATCC 35667; read-out: 5 MIC): 0.25 µg/mL (≈ 0.272 µM); MIC ([5]; read-out: 5 MIC): 1 µg/mL (≈ 1.09 µM); MIC (S. aureus ATCC 29213; read-out: 5 MIC): 0.5 µg/mL (≈ 0.543 µM); MIC ([6]; read-out: 5 MIC): 0.25 µg/mL (≈ 0.272 µM); MIC ([7]; read-out: 5 MIC): 1 µg/mL (≈ 1.09 µM); MIC ([8]; read-out: 5 MIC): 0.25 µg/mL (≈ 0.272 µM)
2 | CC1(C)S[C@@H]2[C@H](NC(=O)[C@H](N)c3ccccc3)C(=O)N2[C@H]1C(=O)O [ampicillin] | 16 µg/mL (≈ 45.8 µM) | 1 µg/mL (≈ 2.86 µM) | 16 µg/mL (≈ 45.8 µM) | > 128 µg/mL | > 128 µg/mL | 1 µg/mL (≈ 2.86 µM) | 32 µg/mL (≈ 91.6 µM) | 128 µg/mL (≈ 366 µM) | 0.5 µg/mL (≈ 1.43 µM) | 128 µg/mL (≈ 366 µM) | 1 µg/mL (≈ 2.86 µM) | 1 µg/mL (≈ 2.86 µM) | 16 µg/mL (≈ 45.8 µM) | > 128 µg/mL | 0.5 µg/mL (≈ 1.43 µM) | 1 µg/mL (≈ 2.86 µM) | 1 µg/mL (≈ 2.86 µM) | 128 µg/mL (≈ 366 µM) | MIC (E. faecium ATCC 35667; read-out: ampicillin MIC): 1 µg/mL (≈ 2.86 µM); MIC ([5]; read-out: ampicillin MIC): 4 µg/mL (≈ 11.4 µM); MIC (S. aureus ATCC 29213; read-out: ampicillin MIC): 1 µg/mL (≈ 2.86 µM); MIC ([6]; read-out: ampicillin MIC): 128 µg/mL (≈ 366 µM); MIC ([7]; read-out: ampicillin MIC): 128 µg/mL (≈ 366 µM); MIC ([8]; read-out: ampicillin MIC): 1 µg/mL (≈ 2.86 µM)
3 | CCCCCCCCCCCCCCCC(=O)N[C@@H](CCCNC(=N)N)C(=O)NCc1ccc(CN[C@H](C(=O)O)[C@H](O[C@@H]2O[C@H](CN)[C@@H](O)[C@H]2O)[C@H]2O[C@@H](n3ccc(=O)[nH]c3=O)[C@H](O)[C@@H]2O)cc1 [compound 3, analogue 3] | 2 µg/mL (≈ 2.08 µM) | 0.25 µg/mL (≈ 0.26 µM) | – | 1 µg/mL (≈ 1.04 µM) | 1 µg/mL (≈ 1.04 µM) | 0.25 µg/mL (≈ 0.26 µM) | 1 µg/mL (≈ 1.04 µM) | 1 µg/mL (≈ 1.04 µM) | 0.25 µg/mL (≈ 0.26 µM) | 0.5 µg/mL (≈ 0.52 µM) | 0.5 µg/mL (≈ 0.52 µM) | 0.13 µg/mL (≈ 0.135 µM) | 1 µg/mL (≈ 1.04 µM) | 1 µg/mL (≈ 1.04 µM) | 0.13 µg/mL (≈ 0.135 µM) | 0.13 µg/mL (≈ 0.135 µM) | < 0.06 µg/mL | 0.5 µg/mL (≈ 0.52 µM) | MIC (E. faecium ATCC 35667; read-out: 3 MIC): 1 µg/mL (≈ 1.04 µM); MIC ([5]; read-out: 3 MIC): 1 µg/mL (≈ 1.04 µM); MIC (S. aureus ATCC 29213; read-out: 3 MIC): 1 µg/mL (≈ 1.04 µM); MIC ([6]; read-out: 3 MIC): 0.5 µg/mL (≈ 0.52 µM); MIC ([7]; read-out: 3 MIC): 2 µg/mL (≈ 2.08 µM); MIC ([8]; read-out: 3 MIC): 0.5 µg/mL (≈ 0.52 µM)
